± gives the standard deviation of the averaged measurements.
How the values were obtained:
Conditions in all cases: 72 h
BV-173 = test system: BV-173
How it was run: (§1)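 The IC50 was read from log-logistic dose–response fits. Fifteen myeloid leukaemia lines were exposed for 72 h at 37 °C with 5% CO2 to five tenfold doses from 1 to 10,000 nM in duplicate. ATP luminescence, normalised to vehicle and to a 10 µM positive control, was fitted with four parameters.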

HEL = test system: HEL
How it was run: as §1

HL-60 [1] = test system: HL-60
How it was run: as §1

K-562 [2] = test system: K-562
How it was run: as §1

KCL-22 [3] = test system: KCL-22
How it was run: as §1

KG-1 [4] = test system: KG-1
How it was run: as §1

KU-812 [5] = test system: KU-812
How it was run: as §1

LAMA-84 [6] = test system: LAMA-84
How it was run: as §1

ML-2 [7] = test system: ML-2
How it was run: as §1

MOLM-13 [8] = test system: MOLM-13
How it was run: as §1

MV4-11 [9] = test system: MV4-11
How it was run: as §1

Mono-Mac-6 = test system: Mono-Mac-6
How it was run: as §1

NOMO-1 [10] = test system: NOMO-1
How it was run: as §1

SHI-1 [11] = test system: SHI-1
How it was run: as §1

THP-1 [12] = test system: THP-1
How it was run: as §1

HL-60 [13] = assay: cell viability (% survival relative to DMSO control); higher = less cytotoxic
How it was run: (§2)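 For each screen, HL-60 cells in RPMI 1640 with 10% FBS carried either DMSO or 100 nM of one of three metabolic inhibitors while the full library was applied at five tenfold concentrations, 1–10,000 nM, in duplicate. Plates were 384-well and were kept 72 h at 37 °C, 5% CO2. Viability, measured by CellTiter-Glo, was normalised to wells with DMSO and with 10 μM proteasome inhibitor. Where area under the curve appears, it was fitted by four-parameter log-logistic models in drc and PharmacoGx.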

K-562 [14] = assay: cell viability (% survival relative to DMSO control, bortezomib = 0%); higher = less cytotoxic
How it was run: (§3)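 After 72 h at 37 °C with 5% CO2, cell viability in 384-well plates was measured by CellTiter-Glo luminescence. The plates held compounds pre-printed at 1, 10, 100, 1000 or 10000 nM in duplicate, and cells from 10 AML and 5 CML lines seeded at densities titrated to linear growth. Percent survival is the duplicate mean, normalised to vehicle as 100% and a 10 µM positive control as 0%.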

KCL-22 [15] = assay: as above
How it was run: as §3

KG-1 [16] = assay: as above
How it was run: as §3

KU-812 [17] = assay: as above
How it was run: as §3

LAMA-84 [18] = assay: as above
How it was run: as §3

ML-2 [19] = assay: as above
How it was run: as §3

MOLM-13 [20] = assay: as above
How it was run: as §3

MV4-11 [21] = assay: as above
How it was run: as §3

NOMO-1 [22] = assay: as above
How it was run: as §3

SHI-1 [23] = assay: as above
How it was run: as §3

THP-1 [24] = assay: as above
How it was run: as §3

HL-60 [25] = assay: area under dose-response curve (viability, 1 nM-10 uM) (fraction (0-1)); higher = more sensitive
How it was run: as §2

O=C(c1c2ccccc2cc2ccccc12)N1CCC(N2CCC[C@@H](C(=O)N3CCOCC3)C2)CC1
Conditions | IC50 (cell viability) [µM]
BV-173 | > 10
HEL | > 10
HL-60 [1] | 1.81
K-562 [2] | > 10
KCL-22 [3] | > 10
KG-1 [4] | > 10
KU-812 [5] | > 10
LAMA-84 [6] | > 10
ML-2 [7] | > 10
MOLM-13 [8] | 2.77
MV4-11 [9] | 8.82
Mono-Mac-6 | > 10
NOMO-1 [10] | > 10
SHI-1 [11] | > 10
THP-1 [12] | > 10

cell viability [%], HL-60 [13]
Conditions | 0.001 µM | 0.01 µM | 0.1 µM | 1 µM | 10 µM
co-treatment: AZD3965 100 nM | 93.6 ± 7.8 | 96.9 ± 4.1 | 102 ± 0.61 | 101 ± 3.2 | 83.4 ± 2.8
co-treatment: DMSO vehicle | 103 ± 4 | 100 ± 2.3 | 105.5 ± 0.56 | 101 ± 3.9 | 94.5 ± 2
co-treatment: GSK2194069 100 nM | 92.4 ± 5.2 | 95.1 ± 1.6 | 98.29 ± 0.17 | 122 ± 30 | 95.7 ± 2.4
co-treatment: pictilisib 100 nM | 93.4 ± 20 | 100 ± 17 | 103 ± 1.5 | 98.8 ± 13 | 78.8 ± 1.9

Conditions | area under dose-response curve, co-treatment: AZD3965 100 nM | area under dose-response curve, co-treatment: DMSO vehicle | area under dose-response curve, co-treatment: GSK2194069 100 nM | area under dose-response curve, co-treatment: pictilisib 100 nM | cell viability, 1 nM [%] | cell viability, 10 nM [%] | cell viability, 100 nM [%] | cell viability, 1000 nM [%] | cell viability, 10000 nM [%]
HL-60 [25] | < 0.0301 | < 0.0301 | < 0.0301 | < 0.0301 | – | – | – | – | –
K-562 [14] | – | – | – | – | 112 | 106 | 119 | 94.9 | 75.7
KCL-22 [15] | – | – | – | – | 107 | 108 | 118 | 99.6 | 78.3
KG-1 [16] | – | – | – | – | 110 | 102 | 111 | 94 | 85.6
KU-812 [17] | – | – | – | – | 100 | 108 | 103 | 95.3 | 96
LAMA-84 [18] | – | – | – | – | 109 | 108 | 105 | 94.5 | 86.5
ML-2 [19] | – | – | – | – | 126 | 118 | 119 | 98.5 | 86.4
MOLM-13 [20] | – | – | – | – | 122 | 103 | 109 | 62.4 | 53.7
MV4-11 [21] | – | – | – | – | 133 | 110 | 97.3 | 78.8 | 62.3
NOMO-1 [22] | – | – | – | – | 106 | 108 | 104 | 99.6 | 95.2
SHI-1 [23] | – | – | – | – | 110 | 96.3 | 107 | 101 | 90
THP-1 [24] | – | – | – | – | 106 | 96.6 | 115 | 94.9 | 100

c1ccc2nc(-c3nnc4sc(-c5cnccn5)nn34)ccc2c1
Conditions | IC50 (cell viability) [µM]
BV-173 | > 10
HEL | > 10
HL-60 [1] | > 10
K-562 [2] | > 10
KCL-22 [3] | > 10
KG-1 [4] | > 10
KU-812 [5] | > 10
LAMA-84 [6] | > 10
ML-2 [7] | > 10
MOLM-13 [8] | > 10
MV4-11 [9] | > 10
Mono-Mac-6 | > 10
NOMO-1 [10] | > 10
SHI-1 [11] | > 10
THP-1 [12] | > 10

cell viability [%], HL-60 [13]
Conditions | 0.001 µM | 0.01 µM | 0.1 µM | 1 µM | 10 µM
co-treatment: AZD3965 100 nM | 98.9 ± 0.82 | 98.75 ± 0.27 | 100.9 ± 0.44 | 98.9 ± 3.1 | 98.4 ± 2
co-treatment: DMSO vehicle | 97.4 ± 1.7 | 100 ± 1.4 | 98.61 ± 0.72 | 98 ± 1.4 | 102 ± 2.2
co-treatment: GSK2194069 100 nM | 102 ± 7.4 | 101 ± 5 | 100 ± 5.6 | 93.01 ± 0.7 | 95.9 ± 5.9
co-treatment: pictilisib 100 nM | 105 ± 5.6 | 103 ± 4.5 | 103 ± 8.9 | 107 ± 5.1 | 100.1 ± 0.31

Conditions | area under dose-response curve, co-treatment: AZD3965 100 nM | area under dose-response curve, co-treatment: DMSO vehicle | area under dose-response curve, co-treatment: GSK2194069 100 nM | area under dose-response curve, co-treatment: pictilisib 100 nM | cell viability, 1 nM [%] | cell viability, 10 nM [%] | cell viability, 100 nM [%] | cell viability, 1000 nM [%] | cell viability, 10000 nM [%]
HL-60 [25] | < 0.0301 | < 0.0301 | < 0.0301 | < 0.0301 | – | – | – | – | –
K-562 [14] | – | – | – | – | 110 | 105 | 107 | 108 | 105
KCL-22 [15] | – | – | – | – | 97.3 | 109 | 109 | 105 | 95.7
KG-1 [16] | – | – | – | – | 110 | 107 | 99.4 | 91.9 | 84.6
KU-812 [17] | – | – | – | – | 105 | 115 | 94.9 | 91.8 | 95.7
LAMA-84 [18] | – | – | – | – | 100 | 104 | 105 | 95.4 | 94.1
ML-2 [19] | – | – | – | – | 108 | 122 | 111 | 86.5 | 110
MOLM-13 [20] | – | – | – | – | 99.6 | 108 | 95.3 | 86.7 | 90.4
MV4-11 [21] | – | – | – | – | 96.4 | 107 | 108 | 88 | 111
NOMO-1 [22] | – | – | – | – | 106 | 109 | 99.5 | 93.7 | 101
SHI-1 [23] | – | – | – | – | 108 | 107 | 116 | 91.9 | 98
THP-1 [24] | – | – | – | – | 105 | 103 | 105 | 88.5 | 99.3

CC(C)(CS(=O)(=O)[O-])NC(=O)CC[N+](C)(C)CCO
Conditions | IC50 (cell viability) [µM]
BV-173 | > 10
HEL | > 10
HL-60 [1] | > 10
K-562 [2] | > 10
KCL-22 [3] | > 10
KG-1 [4] | > 10
KU-812 [5] | > 10
LAMA-84 [6] | > 10
ML-2 [7] | > 10
MOLM-13 [8] | > 10
MV4-11 [9] | > 10
Mono-Mac-6 | > 10
NOMO-1 [10] | > 10
SHI-1 [11] | > 10
THP-1 [12] | > 10

cell viability [%], HL-60 [13]
Conditions | 0.001 µM | 0.01 µM | 0.1 µM | 1 µM | 10 µM
co-treatment: AZD3965 100 nM | 101 ± 5.7 | 89.5 ± 25 | 116 ± 26 | 122 ± 30 | 94.1 ± 3.8
co-treatment: DMSO vehicle | 95.9 ± 6.8 | 98.4 ± 11 | 107.3 ± 0.43 | 106 ± 3.5 | 100 ± 1.9
co-treatment: GSK2194069 100 nM | 105 ± 11 | 95.2 ± 10 | 102 ± 1.7 | 111 ± 12 | 99.7 ± 2.9
co-treatment: pictilisib 100 nM | 102 ± 6.8 | 79.9 ± 30 | 107 ± 5 | 115 ± 23 | 99.9 ± 7.4

Conditions | area under dose-response curve, co-treatment: AZD3965 100 nM | area under dose-response curve, co-treatment: DMSO vehicle | area under dose-response curve, co-treatment: GSK2194069 100 nM | area under dose-response curve, co-treatment: pictilisib 100 nM | cell viability, 1 nM [%] | cell viability, 10 nM [%] | cell viability, 100 nM [%] | cell viability, 1000 nM [%] | cell viability, 10000 nM [%]
HL-60 [25] | < 0.0301 | < 0.0301 | < 0.0301 | < 0.0301 | – | – | – | – | –
K-562 [14] | – | – | – | – | 108 | 88.5 | 105 | 97.8 | 105
KCL-22 [15] | – | – | – | – | 107 | 103 | 94.1 | 88.8 | 117
KG-1 [16] | – | – | – | – | 97.4 | 114 | 93.6 | 94.4 | 118
KU-812 [17] | – | – | – | – | 99.7 | 98.6 | 99.3 | 89.4 | 107
LAMA-84 [18] | – | – | – | – | 88.8 | 96.6 | 100 | 91.3 | 106
ML-2 [19] | – | – | – | – | 95.4 | 109 | 89.4 | 88.9 | 115
MOLM-13 [20] | – | – | – | – | 121 | 112 | 97.2 | 82.3 | 117
MV4-11 [21] | – | – | – | – | 104 | 101 | 99.8 | 95.6 | 114
NOMO-1 [22] | – | – | – | – | 94.8 | 102 | 96 | 94.3 | 101
SHI-1 [23] | – | – | – | – | 107 | 115 | 96.8 | 91.8 | 126
THP-1 [24] | – | – | – | – | 101 | 102 | 99.5 | 93.2 | 120

From the supplement of paper PMC8671470
